Paper PMC6106931 (Alzheimer's Research & Therapy, 2018)
“Also recorded” adds a separate entry of the source. Read-outs that look alike come from different tables or passages of the source.

Key:
t-tau/p-tau181p = experiment: CSF total tau / p-tau181P, Study ALZ1005; format: in vivo, human; details: for CSF P-tau percent change from baseline at day 28, Mean (SD) / CSF P-tau percent change from baseline at day 28, Median (range) / CSF total tau percent change from baseline at day 28, Mean (SD) / CSF total tau percent change from baseline at day 28, Median (range): Caucasian early AD
Experimental: In addition, exploratory measurements of plasma/CSF levels of APP fragments (sAPPα, sAPPβ, and total sAPP) and CSF levels of BACE1, t-tau, and p-tau were performed.
Baseline Aβ1–42, p-tau181P, and t-tau concentrations were measured using Innotest® Phospho-TAU181P, Innotest® hTAU Ag, and Innotest® β-AMYLOID1–42 (Innogenetics/Fujirebio, Ghent, Belgium) and the Luminex analytical platform (Luminex Corp., Austin, TX, USA). CSF samples from both the ALZ1005 (Caucasian) and ALZ1008 (Japanese) studies were analyzed in the same laboratory setting using the same assays and analytical platform. Diagnostic threshold CSF concentrations for AD vs. normal controls for Aβ1–42 were applied to the current sample set to judge the likelihood of having cerebral amyloid plaque deposition.
Treatment effect on plasma/CSF Aβ as compared with placebo was estimated by 95% CI for percent changes from baseline in each of the Aβ fragments (Aβ1–37, Aβ1–38, Aβ1–40, and Aβ1–42) in CSF and plasma. For primary and secondary biomarkers, day 28% changes from baseline, the least squares (LS) means (converted to original units), and treatment differences relative to placebo (with corresponding 95% CI) were analyzed on the basis of an analysis of covariance model that included treatment group and baseline score as a covariate. Day 28 changes from baseline in CSF tau/p-tau were summarized using descriptive statistics. Data were summarized and plotted by dose group, and exposure-response relationship was explored. […] Variability of predose baseline parameters vs. day 28 individual CSF ratios of Aβ1–42 to Aβ1–40 across treatment groups was explored graphically. Analyses were performed on individual populations of preclinical AD and MCI due to AD as well as the combined population of early AD.

[1] = Plasma and CSF pharmacokinetics, population PK modeling, Study ALZ1005; format: in vivo, human; details: for Kp at 28 day: CSF / free plasma; for concentration at 28 day: CSF, read-out: C28d, CSF concentration at Day 28, Mean (SD); for AUC: read-out: Plasma AUCτ, Day 28, Mean (SD); for Cmax: read-out: Plasma Cmax, Day 28, Mean (SD)
Experimental: CSF and plasma collection and processing, as well as apolipoprotein E (APOE) ε4 genotyping, are described in Additional file 2. Population PK modeling from sparse PK samples collected in the ALZ1005 Study was performed to derive individual steady-state maximum plasma concentration [Cmax] and area under the concentration-time profile during the dosing interval at steady state [AUC from 0 to 24 hours postdosing]. This model was also used to derive PK/PD simulations of CSF Aβ1–40 reduction (described in “Pharmacokinetic/pharmacodynamic relationship” section below).
The lower limit of quantification (LLOQ) was 1 ng/ml.

[2] = Cognitive evaluations (CANTAB Elect, RBANS, CDR-SB, MMSE), Study ALZ1005; format: in vivo, human; details: Caucasian early AD
Experimental: When multiple assessments were performed at the same visit by independent raters, the sequential order of testing was RBANS first followed by CDR, MMSE, and CANTAB Elect, and if raters for RBANS and CDR were the same, then CDR was performed prior to RBANS.
The CDR assessed three domains of cognition (memory, orientation, judgment/problem solving) and three domains of function (community affairs, home/hobbies, personal care) using structured interviews of both the patient and a companion/informant by a trained rater and scored using a standard methodology. CDR global score for the six domains range from 0 to 3 with 0 indicating no dementia and 3 indicating severe dementia. It can be summed to obtain CDR Sum of Boxes (CDR-SB) with scores ranging from 0 to 18. CDR and CDR-Japanese version global score has been used in AD trials as a global measure of disease progression.
RBANS battery includes 12 subsets that measure 5 indices; the Digit Span and Coding subtests measure Attention, the Picture Naming and Semantic Fluency subtests measure Language, the Figure Copy and Line Orientation subtests measure Visuospatial/Construction, List Learning and Store Memory subtests measure Immediate Memory, and List Recall, List Recognition, Store Memory and Figure Recall measure Delayed Memory. RBANS has been used in multinational AD clinical trials.
The CANTAB test battery consists of paired associated learning (PAL), reaction time (RTI) and spatial working memory (SWM). Performance in this test battery is associated with pathologic Aβ and tau levels and enables identification of individuals with memory impairment who are likely to develop AD and those with questionable dementia. Scores have a sensitivity of 0.83 and a specificity of 0.82 when differentiating individuals with MCI from healthy older adults. The PAL test assesses visuospatial episodic memory and the outcome measure is the adjusted number of errors committed at the 6-pattern stage. The test-retest reliability for PAL is 0.75 in MCI and 0.85 in AD. The RTI test assesses psychomotor processing speed. […] The test-retest reliability is 0.68 in MCI and 0.72 in AD. The SWM test assesses working memory and executive function. The outcome measure is the number errors made during performing of the task. The test-retest reliability is 0.55 in MCI and 0.68 in AD.
MMSE rates subjects on orientation, registration, attention, calculation, recall and language. The maximum score is 30, and lower the score the greater the impairment.

[3] = set-up: method as in PMID 29067308; details: ALZ1002 Study; CV = 19%; cited from earlier work
[4] = human, plasma, oral, Caucasian early AD, 10 mg q.d., population PK modeling
[5] = human, plasma, oral, Caucasian early AD, 50 mg q.d., population PK modeling

C[C@@]1(c2cc(NC(=O)c3ccc(C#N)cn3)ccc2F)C=CSC(N)=N1 [atabecestat]
changes in CSF t-tau or p-tau over 4-week treatment (t-tau/p-tau181p; 10-mg and 50-mg doses, Caucasian and Japanese): no relevant changes
CSF P-tau percent change from baseline at day 28, Mean (SD) (t-tau/p-tau181p; 10 mg daily): 3.56 (4.797) %
CSF P-tau percent change from baseline at day 28, Median (range) (t-tau/p-tau181p; 10 mg daily): 3.45 (− 4.6; 11.5) %
CSF total tau percent change from baseline at day 28, Mean (SD) (t-tau/p-tau181p; 10 mg daily): 4.18 (7.629) %
CSF total tau percent change from baseline at day 28, Median (range) (t-tau/p-tau181p; 10 mg daily): 6.76 (− 11.2; 16.1) %
CSF P-tau percent change from baseline at day 28, Mean (SD) (t-tau/p-tau181p; 50 mg daily): 7.36 (3.648) %
CSF P-tau percent change from baseline at day 28, Median (range) (t-tau/p-tau181p; 50 mg daily): 7.42 (1.6; 16.7) %
CSF total tau percent change from baseline at day 28, Mean (SD) (t-tau/p-tau181p; 50 mg daily): 8.02 (6.557) %
CSF total tau percent change from baseline at day 28, Median (range) (t-tau/p-tau181p; 50 mg daily): 7.64 (− 4.5; 23.4) %
CNS penetrance of unbound drug ([1]; Caucasian and Japanese early AD): high central nervous system penetrance of unbound drug; also recorded: high CNS penetrance of unbound drug
CL/F ([1]; Caucasian early AD (preclinical AD and MCI due to AD), 10 and 50 mg q.d., population PK estimate, intersubject CV 30%): 8.32 L/h
DN AUCτ (dose normalization to 5 mg), Day 28, Mean (SD) ([1]; Caucasian early AD, 10 mg q.d.): 616 (185) ng.h/mL
DN C28d (CSF, dose normalization to 5 mg), Mean (SD) ([1]; Caucasian early AD, 10 mg q.d.): 1.54 (0.52) ng/mL
DN Cmax (dose normalization to 5 mg), Day 28, Mean (SD) ([1]; Caucasian early AD, 10 mg q.d.): 55 (10) ng/mL
DN AUCτ (dose normalization to 5 mg), Day 28, Mean (SD) ([1]; Caucasian early AD, 50 mg q.d.): 620 (171) ng.h/mL
DN C28d (CSF, dose normalization to 5 mg), Mean (SD) ([1]; Caucasian early AD, 50 mg q.d.): 1.51 (0.71) ng/mL
PK linearity ([1]; both populations, 10 and 50 mg): linear PK
Kp at 28 day ([1]; human, oral, Caucasian early AD, 10 mg q.d., simulated plasma concentration, free fraction 6%, read-out: Ratio C28d (CSF)/free plasma, Mean (SD)): 0.789
Kp at 28 day ([1]; human, oral, Caucasian early AD, 50 mg q.d., simulated plasma concentration, free fraction 6%, read-out: Ratio C28d (CSF)/free plasma, Mean (SD)): 0.892
Kp at 28 day ([1]; human, oral, Caucasian early AD, 10-mg and 50-mg groups together, day 28): 0.84
concentration at 28 day ([1]; human, oral, Caucasian early AD, 10 mg q.d.): 3.08 ng/mL
concentration at 28 day ([1]; human, oral, Caucasian early AD, 50 mg q.d.): 15.1 ng/mL
Tmax at 28 day [1, 4]: 1.7 h
AUC [1, 4]: 1230 ng·h/mL
Cmax [1, 4]: 110 ng/mL
AUC [1, 5]: 6200 ng·h/mL
Cmax [1, 5]: 550 ng/mL
Tmax ([1]; human, plasma, oral, Caucasian early AD, 50 mg q.d., population PK modeling, read-out: Plasma Tmax, Day 28): 1.8 h
CDR-SB Total Score, change from baseline at day 28, Diff. of LS Means (SE) vs placebo ([2]; 10 mg): ^-0.07 (0.305)
CDR-SB Total Score, change from baseline at day 28, LS Mean ([2]; 10 mg): ^-0.04
CDR-SB Total Score, change from baseline at day 28, Mean (SD) ([2]; 10 mg): ^-0.04 (0.660)
MMSE Total Score, change from baseline at day 28, Diff. of LS Means (SE) vs placebo ([2]; 10 mg): ^-1.33 (0.906)
MMSE Total Score, change from baseline at day 28, LS Mean ([2]; 10 mg): ^-0.76
MMSE Total Score, change from baseline at day 28, Mean (SD) ([2]; 10 mg): ^-0.40 (2.971)
PAL Total Errors 6 Shapes Adjusted, change from baseline at day 28, Diff. of LS Means (SE) vs placebo ([2]; 10 mg): ^-1.14 (2.086)
PAL Total Errors 6 Shapes Adjusted, change from baseline at day 28, LS Mean ([2]; 10 mg): ^0.87
RBANS Total Scale, change from baseline at day 28, Diff. of LS Means (SE) vs placebo ([2]; 10 mg): ^-4.39 (2.762)
RBANS Total Scale, change from baseline at day 28, LS Mean ([2]; 10 mg): ^0.07
RBANS Total Scale, change from baseline at day 28, Mean (SD) ([2]; 10 mg): ^0.33 (4.995)
RTI Simple Reaction Time Mean, change from baseline at day 28, Diff. of LS Means (SE) vs placebo ([2]; 10 mg): ^41.89 (23.130)
RTI Simple Reaction Time Mean, change from baseline at day 28, LS Mean ([2]; 10 mg): ^14.30
SWM Between Errors 4-8 Boxes, change from baseline at day 28, Diff. of LS Means (SE) vs placebo ([2]; 10 mg): ^0.06 (2.631)
SWM Between Errors 4-8 Boxes, change from baseline at day 28, LS Mean ([2]; 10 mg): ^1.48
CDR-SB Total Score, change from baseline at day 28, Diff. of LS Means (SE) vs placebo ([2]; 50 mg): ^0.51 (0.300)
CDR-SB Total Score, change from baseline at day 28, LS Mean ([2]; 50 mg): ^0.54
CDR-SB Total Score, change from baseline at day 28, Mean (SD) ([2]; 50 mg): ^0.54 (1.082)
MMSE Total Score, change from baseline at day 28, Diff. of LS Means (SE) vs placebo ([2]; 50 mg): ^-1.29 (0.880)
MMSE Total Score, change from baseline at day 28, LS Mean ([2]; 50 mg): ^-0.73
MMSE Total Score, change from baseline at day 28, Mean (SD) ([2]; 50 mg): ^-0.75 (3.317)
PAL Total Errors 6 Shapes Adjusted, change from baseline at day 28, Diff. of LS Means (SE) vs placebo ([2]; 50 mg): ^-1.44 (2.037)
PAL Total Errors 6 Shapes Adjusted, change from baseline at day 28, LS Mean ([2]; 50 mg): ^0.57
RBANS Total Scale, change from baseline at day 28, Diff. of LS Means (SE) vs placebo ([2]; 50 mg): ^-2.48 (2.705)
RBANS Total Scale, change from baseline at day 28, LS Mean ([2]; 50 mg): ^1.97
RBANS Total Scale, change from baseline at day 28, Mean (SD) ([2]; 50 mg): ^1.88 (10.392)
RTI Simple Reaction Time Mean, change from baseline at day 28, Diff. of LS Means (SE) vs placebo ([2]; 50 mg): ^33.19 (23.367)
RTI Simple Reaction Time Mean, change from baseline at day 28, LS Mean ([2]; 50 mg): ^5.60
SWM Between Errors 4-8 Boxes, change from baseline at day 28, Diff. of LS Means (SE) vs placebo ([2]; 50 mg): ^-0.48 (2.693)
SWM Between Errors 4-8 Boxes, change from baseline at day 28, LS Mean ([2]; 50 mg): ^0.93
RBANS total scale, MMSE total and CDR Sum of Boxes change from baseline at day 28 ([2]; any treatment group): no meaningful change
CANTAB (PAL, RTI, SWM) changes from baseline at day 28 ([2]; atabecestat treatment groups): No meaningful changes
oral clearance (CL/F), model-based estimate [3]: 10.5 L/h
